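Interpolation was linear, between the two tested concentrations surrounding the appropriate level; five concentrations were tested over 48 hours in 96-well plates. GI50: concentration for 50% inhibition of growth.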 Activity calls are given as the source filed them. No stated cut-off is given here; in the data, active = GI50 up to about 1.1 µM and inactive = higher.
Key:
Experiment in all cases: NCI tumour cell line growth inhibition, 48 h
HOP-62 = tested on: HOP-62
SK-MEL-28 = tested on: SK-MEL-28
SF-295 = tested on: SF-295
ACHN = tested on: ACHN
SK-MEL-2 = tested on: SK-MEL-2
HCT-15 = tested on: HCT-15
OVCAR-8 = tested on: OVCAR-8
SF-539 = tested on: SF-539
SNB-75 = tested on: SNB-75
T47D = tested on: T47D
NCI-H460 = tested on: NCI-H460
MOLT-4 = tested on: MOLT-4
Hs-578T = tested on: Hs-578T
SNB-19 = tested on: SNB-19
PC-3 = tested on: PC-3
UO-31 = tested on: UO-31
Malme-3M = tested on: Malme-3M
U-251 = tested on: U-251
NCI/ADR-RES = tested on: NCI/ADR-RES
MDA-MB-231 = tested on: MDA-MB-231
BT-549 = tested on: BT-549
COLO 205 = tested on: COLO 205
MDA-N = tested on: MDA-N
SN12C = tested on: SN12C
SW-620 = tested on: SW-620
DU-145 = tested on: DU-145
CCRF-CEM = tested on: CCRF-CEM
HT-29 = tested on: HT-29
SF-268 = tested on: SF-268
UACC-257 = tested on: UACC-257
SK-OV-3 = tested on: SK-OV-3
KM12 = tested on: KM12
A549 = tested on: A549
NCI-H522 = tested on: NCI-H522
M14 = tested on: M14
TK-10 = tested on: TK-10
SK-MEL-5 = tested on: SK-MEL-5
MCF7 = tested on: MCF7
K562 = tested on: K562
NCI-H23 = tested on: NCI-H23
HCT-116 = tested on: HCT-116
UACC-62 = tested on: UACC-62
LOX IMVI = tested on: LOX IMVI
RPMI-8226 = tested on: RPMI-8226
RXF 393 = tested on: RXF 393
OVCAR-4 = tested on: OVCAR-4
OVCAR-5 = tested on: OVCAR-5
IGROV-1 = tested on: IGROV-1
786-0 = tested on: 786-0
HOP-92 = tested on: HOP-92
HL-60 = tested on: HL-60
NCI-H226 = tested on: NCI-H226
SR = tested on: SR
EKVX = tested on: EKVX
HCC 2998 = tested on: HCC 2998
OVCAR-3 = tested on: OVCAR-3
A498 = tested on: A498
MDA-MB-435 = tested on: MDA-MB-435
CAKI-1 = tested on: CAKI-1

CNC(=O)NS(=O)(=O)c1ccc(C)cc1.NS(=O)O
GI50 (HOP-62): > 100 µM (inactive)
GI50 (SK-MEL-28): > 100 µM (inactive)
GI50 (SF-295): > 100 µM (inactive)
GI50 (ACHN): > 100 µM (inactive)
GI50 (SK-MEL-2): > 100 µM (inactive)
GI50 (HCT-15): > 100 µM
GI50 (OVCAR-8): > 100 µM (inactive)
GI50 (SF-539): > 100 µM (inactive)
GI50 (SNB-75): > 100 µM (inactive)
GI50 (T47D): > 100 µM (inactive)
GI50 (NCI-H460): > 100 µM (inactive)
GI50 (MOLT-4): > 100 µM (inactive)
GI50 (Hs-578T): > 100 µM (inactive)
GI50 (SNB-19): > 100 µM (inactive)
GI50 (PC-3): > 100 µM (inactive)
GI50 (UO-31): > 100 µM (inactive)
GI50 (Malme-3M): > 100 µM (inactive)
GI50 (U-251): > 100 µM (inactive)
GI50 (NCI/ADR-RES): > 100 µM (inactive)
GI50 (MDA-MB-231): > 100 µM (inactive)
GI50 (BT-549): > 100 µM (inactive)
GI50 (COLO 205): > 100 µM (inactive)
GI50 (MDA-N): > 100 µM (inactive)
GI50 (SN12C): > 100 µM (inactive)
GI50 (SW-620): > 100 µM (inactive)
GI50 (DU-145): > 100 µM (inactive)
GI50 (CCRF-CEM): > 100 µM (inactive)
GI50 (HT-29): > 100 µM (inactive)
GI50 (SF-268): > 100 µM (inactive)
GI50 (UACC-257): > 100 µM (inactive)
GI50 (SK-OV-3): > 100 µM (inactive)
GI50 (KM12): > 100 µM (inactive)
GI50 (A549): > 100 µM (inactive)
GI50 (NCI-H522): > 100 µM (inactive)
GI50 (M14): > 100 µM (inactive)
GI50 (TK-10): > 100 µM (inactive)
GI50 (SK-MEL-5): > 100 µM (inactive)
GI50 (MCF7): > 100 µM (inactive)
GI50 (K562): > 100 µM (inactive)
GI50 (NCI-H23): > 100 µM (inactive)
GI50 (HCT-116): > 100 µM (inactive)
GI50 (UACC-62): > 100 µM (inactive)
GI50 (LOX IMVI): > 100 µM (inactive)
GI50 (RPMI-8226): > 100 µM (inactive)
GI50 (RXF 393): > 100 µM (inactive)
GI50 (OVCAR-4): > 100 µM (inactive)
GI50 (OVCAR-5): > 100 µM (inactive)
GI50 (IGROV-1): > 100 µM (inactive)
GI50 (786-0): > 100 µM (inactive)
GI50 (HOP-92): > 100 µM (inactive)
GI50 (HL-60): > 100 µM (inactive)

Brc1ccc2[nH]cc([C@@H]3CN[C@@H](c4c[nH]c5ccc(Br)cc45)CN3)c2c1
GI50 (HOP-62): 8.18 µM (inactive)
GI50 (NCI-H226): 7.55 µM (inactive)
GI50 (SK-MEL-28): 13.7 µM (inactive)
GI50 (SF-295): 3.72 µM (inactive)
GI50 (SR): 1.86 µM (inactive)
GI50 (ACHN): 2.33 µM (inactive)
GI50 (SK-MEL-2): 8.95 µM (inactive)
GI50 (HCT-15): 9.44 µM
GI50 (OVCAR-8): 3.63 µM (inactive)
GI50 (SF-539): 10.6 µM (inactive)
GI50 (SNB-75): 2.78 µM (inactive)
GI50 (T47D): 8.13 µM (inactive)
GI50 (NCI-H460): 7.57 µM (inactive)
GI50 (MOLT-4): 1.98 µM (inactive)
GI50 (Hs-578T): 6.95 µM (inactive)
GI50 (SNB-19): 11.4 µM (inactive)
GI50 (PC-3): 3.35 µM (inactive)
GI50 (UO-31): 2.42 µM (inactive)
GI50 (Malme-3M): 14.8 µM (inactive)
GI50 (EKVX): 5.57 µM (inactive)
GI50 (U-251): 4.39 µM (inactive)
GI50 (NCI/ADR-RES): 7.66 µM (inactive)
GI50 (HCC 2998): 6.52 µM (inactive)
GI50 (MDA-MB-231): 3.79 µM (inactive)
GI50 (BT-549): 14.8 µM (inactive)
GI50 (COLO 205): 1.96 µM (inactive)
GI50 (SN12C): 6.04 µM (inactive)
GI50 (SW-620): 4.18 µM (inactive)
GI50 (OVCAR-3): 4.8 µM (inactive)
GI50 (DU-145): 3.47 µM (inactive)
GI50 (CCRF-CEM): 2.16 µM (inactive)
GI50 (HT-29): 5.71 µM (inactive)
GI50 (SF-268): 10.4 µM (inactive)
GI50 (UACC-257): 8.95 µM (inactive)
GI50 (A498): 15 µM (inactive)
GI50 (SK-OV-3): 12.7 µM (inactive)
GI50 (KM12): 2.07 µM (inactive)
GI50 (A549): 6.15 µM (inactive)
GI50 (NCI-H522): 2.21 µM (inactive)
GI50 (M14): 5.25 µM (inactive)
GI50 (MDA-MB-435): 3.9 µM (inactive)
GI50 (TK-10): 6.92 µM (inactive)
GI50 (SK-MEL-5): 7.93 µM (inactive)
GI50 (MCF7): 3.66 µM (inactive)
GI50 (K562): 1.77 µM (inactive)
GI50 (NCI-H23): 9.95 µM (inactive)
GI50 (HCT-116): 4.18 µM (inactive)
GI50 (UACC-62): 7.52 µM (inactive)
GI50 (LOX IMVI): 1.66 µM (inactive)
GI50 (RPMI-8226): 2.12 µM (inactive)
GI50 (RXF 393): 5.48 µM (inactive)
GI50 (OVCAR-4): 4.76 µM (inactive)
GI50 (OVCAR-5): 7.89 µM (inactive)
GI50 (CAKI-1): 8.93 µM (inactive)
GI50 (IGROV-1): 3.41 µM (inactive)
GI50 (786-0): 3.94 µM (inactive)
GI50 (HOP-92): 1.36 µM (inactive)
GI50 (HL-60): 1.82 µM (inactive)

COc1ccc2nc3c(C)cc4ccccc4n3c2c1
GI50 (HOP-62): 75.3 µM (inactive)
GI50 (NCI-H226): > 100 µM (inactive)
GI50 (SK-MEL-28): > 100 µM (inactive)
GI50 (SF-295): 78.7 µM (inactive)
GI50 (SR): 50.2 µM (inactive)
GI50 (ACHN): 47.3 µM (inactive)
GI50 (HCT-15): 56.5 µM
GI50 (OVCAR-8): 72.1 µM (inactive)
GI50 (SF-539): 86.9 µM (inactive)
GI50 (SNB-75): 28.2 µM (inactive)
GI50 (T47D): > 100 µM (inactive)
GI50 (NCI-H460): 25.3 µM (inactive)
GI50 (MOLT-4): 23 µM (inactive)
GI50 (Hs-578T): 18 µM (inactive)
GI50 (SNB-19): > 100 µM (inactive)
GI50 (PC-3): 46.3 µM (inactive)
GI50 (UO-31): 52 µM (inactive)
GI50 (Malme-3M): > 100 µM (inactive)
GI50 (EKVX): 19.2 µM (inactive)
GI50 (U-251): 44.7 µM (inactive)
GI50 (NCI/ADR-RES): > 100 µM (inactive)
GI50 (HCC 2998): > 100 µM (inactive)
GI50 (BT-549): > 100 µM (inactive)
GI50 (COLO 205): > 10 µM (inactive)
GI50 (MDA-N): > 100 µM (inactive)
GI50 (SN12C): > 100 µM (inactive)
GI50 (SW-620): 73.6 µM (inactive)
GI50 (OVCAR-3): 71 µM (inactive)
GI50 (DU-145): > 100 µM (inactive)
GI50 (CCRF-CEM): 47.6 µM (inactive)
GI50 (HT-29): 55 µM (inactive)
GI50 (SF-268): 86.9 µM (inactive)
GI50 (UACC-257): > 100 µM (inactive)
GI50 (A498): 11.9 µM (inactive)
GI50 (SK-OV-3): > 100 µM (inactive)
GI50 (KM12): > 100 µM (inactive)
GI50 (A549): 41.1 µM (inactive)
GI50 (M14): > 100 µM (inactive)
GI50 (MDA-MB-435): > 100 µM (inactive)
GI50 (TK-10): 80.2 µM (inactive)
GI50 (SK-MEL-5): 57.9 µM (inactive)
GI50 (MCF7): 51.5 µM (inactive)
GI50 (K562): 41.2 µM (inactive)
GI50 (NCI-H23): > 100 µM (inactive)
GI50 (HCT-116): 41.6 µM (inactive)
GI50 (UACC-62): > 100 µM (inactive)
GI50 (RPMI-8226): 55.1 µM (inactive)
GI50 (RXF 393): 25.8 µM (inactive)
GI50 (OVCAR-5): > 100 µM (inactive)
GI50 (IGROV-1): 29.2 µM (inactive)
GI50 (786-0): 48 µM (inactive)
GI50 (HOP-92): 50.8 µM (inactive)
GI50 (HL-60): > 100 µM (inactive)

From ChEMBL document CHEMBL1201862, “PubChem BioAssay data set” (2004)
